How the values were obtained:
Assay in all cases: relative viability (nuclei count vs DMSO), 5 days (fraction); higher = more cells survive
RU-SKI 43 + Luminespib = compound: CC[C@@H](C)CNCC(=O)N1CCC2=C([C@@H]1COC3=CC=CC(=C3)C)C=CS2 [RU-SKI 43] + CCNC(=O)c1noc(-c2cc(C(C)C)c(O)cc2O)c1-c1ccc(CN2CCOCC2)cc1 [Luminespib] (partner 0.01 µM)
Summary of the method: (§1)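 Lung cancer cell lines were pin-tool dosed in 1536-well plates on the day after seeding, with either a lone drug or a fixed anchor-drug dose plus five library-drug doses (not always all listed) in √10 steps. Nuclei were counted on 4× images after 5 days. Relative viability is the ratio of treated-well to vehicle-well nuclei counts, with each value a median of duplicate plates.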

RU-SKI 43 + Lapatinib = compound: CC[C@@H](C)CNCC(=O)N1CCC2=C([C@@H]1COC3=CC=CC(=C3)C)C=CS2 [RU-SKI 43] + CS(=O)(=O)CCNCc1ccc(-c2ccc3ncnc(Nc4ccc(OCc5cccc(F)c5)c(Cl)c4)c3c2)o1 [Lapatinib] (partner 2 µM)
Summary of the method: as §1

RU-SKI 43 + AZD7762 = compound: CC[C@@H](C)CNCC(=O)N1CCC2=C([C@@H]1COC3=CC=CC(=C3)C)C=CS2 [RU-SKI 43] + NC(=O)Nc1cc(-c2cccc(F)c2)sc1C(=O)N[C@H]1CCCNC1 [AZD7762] (partner 0.2 µM)
Summary of the method: as §1

MK-8033 + Pictilisib = compound: Cn1cc(-c2cnc3ccc4ccc(CS(=O)(=O)NCc5ccccn5)cc4c(=O)c3c2)cn1 [MK-8033] + CS(=O)(=O)N1CCN(Cc2cc3nc(-c4cccc5[nH]ncc45)nc(N4CCOCC4)c3s2)CC1 [Pictilisib] (partner 1 µM)
Summary of the method: as §1

Cell Line	relative viability (RU-SKI 43 + Luminespib; first compound 0.1 µM)	relative viability (RU-SKI 43 + Luminespib; first compound 0.3162 µM)	relative viability (RU-SKI 43 + Luminespib; first compound 1 µM)	relative viability (RU-SKI 43 + Luminespib; first compound 3.162 µM)	relative viability (RU-SKI 43 + Luminespib; first compound 10 µM)	relative viability (RU-SKI 43 + Lapatinib; first compound 0.1 µM)	relative viability (RU-SKI 43 + Lapatinib; first compound 0.3162 µM)	relative viability (RU-SKI 43 + Lapatinib; first compound 1 µM)	relative viability (RU-SKI 43 + Lapatinib; first compound 3.162 µM)	relative viability (RU-SKI 43 + Lapatinib; first compound 10 µM)	relative viability (RU-SKI 43 + AZD7762; first compound 0.1 µM)	relative viability (RU-SKI 43 + AZD7762; first compound 0.3162 µM)	relative viability (RU-SKI 43 + AZD7762; first compound 1 µM)	relative viability (RU-SKI 43 + AZD7762; first compound 3.162 µM)	relative viability (RU-SKI 43 + AZD7762; first compound 10 µM)	relative viability (MK-8033 + Pictilisib; first compound 0.02 µM)	relative viability (MK-8033 + Pictilisib; first compound 0.06325 µM)	relative viability (MK-8033 + Pictilisib; first compound 0.2 µM)	relative viability (MK-8033 + Pictilisib; first compound 0.6325 µM)	relative viability (MK-8033 + Pictilisib; first compound 2 µM)
NCI-H1651	0.697	0.9	0.915	0.807	0.658	0.846	0.964	0.98	0.974	0.764	0.506	0.467	0.549	0.535	0.456	0.602	0.528	0.433	0.631	0.507
NCI-H1355	0.577	0.822	0.869	0.76	0.741	0.961	1.13	0.897	0.995	0.984	0.711	0.724	0.801	0.697	0.771	0.424	0.302	0.442	0.393	0.442
NCI-H1563	0.51	0.502	0.51	0.529	0.495	0.871	0.874	0.879	0.913	0.765	–	–	–	–	–	0.617	0.63	0.648	0.659	0.705
NCI-H1650	0.185	0.191	0.226	0.205	0.206	0.696	0.81	0.885	0.858	0.637	–	–	–	–	–	0.601	0.469	0.646	0.527	0.544
HCC-78	–	–	–	–	–	0.843	0.626	1.24	0.513	0.369	0.716	0.638	0.85	0.6	0.695	0.237	0.152	0.253	–	0.245
NCI-H1437	1.07	1.26	1.15	1.1	1.04	0.904	1.08	0.907	1.06	0.746	1.16	1.28	1.16	1.12	1.08	0.56	0.409	0.384	0.449	0.482
BEN	0.423	0.277	0.525	0.218	0.421	0.691	0.607	0.961	0.589	0.684	0.801	0.652	0.786	0.642	0.743	0.583	0.454	0.499	0.594	0.541
LCLC-103H	0.934	1.16	1.1	1.1	0.971	–	–	–	–	–	0.832	0.804	0.788	0.821	0.763	0.616	0.589	0.593	0.737	0.638
NCI-H1915	0.837	1.44	1.02	0.869	0.895	1.02	1.22	1.13	1.03	0.993	0.699	0.833	0.702	0.672	0.688	0.969	0.785	0.914	1	0.861
NCI-H2085	0.398	0.481	0.591	0.431	0.407	0.672	0.719	0.836	0.674	0.686	1.02	0.856	0.948	1.08	1.02	0.417	0.369	0.532	0.57	0.395
NCI-H23	0.209	0.181	0.209	–	0.224	0.834	1.22	1.37	1.12	0.916	0.197	0.229	0.202	0.216	0.154	0.377	0.397	0.378	0.561	0.384
EPLC-272H	0.467	0.182	0.73	0.423	0.278	0.913	0.831	1.25	–	0.833	0.242	0.194	0.195	0.345	0.26	0.3	–	0.298	0.303	0.294
EBC-1	–	–	–	–	–	0.186	0.189	0.215	0.197	0.181	–	–	–	–	–	0.354	0.314	0.222	0.195	0.144
SK-MES-1	0.761	0.854	0.818	0.929	0.75	0.471	0.49	0.519	0.51	0.422	–	–	–	–	–	0.334	0.301	0.328	0.405	0.349
A549	–	–	–	–	–	0.95	1.13	1.09	0.908	0.759	–	–	–	–	–	0.519	0.491	0.387	0.47	0.409
SW 900	0.196	0.188	0.195	0.169	0.151	–	–	–	–	–	0.523	0.612	0.571	0.588	0.58	–	–	–	–	–

Source: the supplement of paper PMC10307832
